What was measured:
[1] = molecular target: T1, Insulin-like growth factor 1 receptor (Homo sapiens, UniProt P08069); test: Inhibition of human IGF1R phosphorylation expressed in HEK293 cells by DELFIA; assay type: cell-based
[2] = molecular target: Aurora kinase B (Homo sapiens, UniProt Q96GD4); test: Inhibition of Aurora B
[3] = molecular target: T1, Insulin-like growth factor 1 receptor; test: Inhibition of GST-tagged human IGF1R expressed in Sf9 cells by Wallac Victor fluorometer
[4] = tested on: Rattus norvegicus; test: Volume of distribution at steady state in rat at 2.3mg/kg, iv and 10.7 mg/kg, po; assay type: ADME, organism-based; set-up: dose 10.7 mg/kg, route oral; settings: in vivo
[5] = Bioavailability in rat at 2.3 mg/kg, iv and 10.7 mg/kg, po; assay type: ADME, organism-based; settings: in vivo
[6] = tested on: Rattus norvegicus; test: Dose normalized AUC in rat at 2.3 mg/kg, iv and 10.7 mg/kg, po; assay type: ADME, organism-based; settings: in vivo
[7] = Clearance in rat at 2.3 mg/kg, iv; assay type: ADME, organism-based; set-up: dose 2.3 mg/kg, route intravenous; settings: in vivo
[8] = Cmax in rat at 2.3mg/kg, iv and 10.7 mg/kg, po; assay type: ADME, organism-based; set-up: dose 10.7 mg/kg, route oral; settings: in vivo
[9] = Bioavailability in rat at 4.2 mg/kg, iv and 13.6 mg/kg, po; assay type: ADME, organism-based; settings: in vivo
[10] = Cmax in rat at 4.2mg/kg, iv and 13.6 mg/kg, po; assay type: ADME, organism-based; set-up: dose 13.6 mg/kg, route oral; settings: in vivo
[11] = tested on: Rattus norvegicus; test: Dose normalized AUC in rat at 4.2 mg/kg, iv and 13.6 mg/kg, po; assay type: ADME, organism-based; settings: in vivo
[12] = Clearance in rat at 4.2 mg/kg, iv; assay type: ADME, organism-based; set-up: dose 4.2 mg/kg, route intravenous; settings: in vivo
[13] = tested on: Rattus norvegicus; test: Volume of distribution at steady state in rat at 4.2mg/kg, iv and 13.6 mg/kg, po; assay type: ADME, organism-based; set-up: dose 13.6 mg/kg, route oral; settings: in vivo
[14] = Bioavailability in rat at 2.0 mg/kg, iv and 10.6 mg/kg, po; assay type: ADME, organism-based; settings: in vivo
[15] = tested on: Rattus norvegicus; test: Volume of distribution at steady state in rat at 2.0mg/kg, iv and 10.6 mg/kg, po; assay type: ADME, organism-based; set-up: dose 10.6 mg/kg, route oral; settings: in vivo
[16] = tested on: Rattus norvegicus; test: Dose normalized AUC in rat at 2.0 mg/kg, iv and 10.6 mg/kg, po; assay type: ADME, organism-based; settings: in vivo
[17] = Clearance in rat at 2.0 mg/kg, iv; assay type: ADME, organism-based; set-up: dose 2 mg/kg, route intravenous; settings: in vivo
[18] = Cmax in rat at 2.0mg/kg, iv and 10.6 mg/kg, po; assay type: ADME, organism-based; set-up: dose 10.6 mg/kg, route oral; settings: in vivo
[19] = tested on: Rattus norvegicus; test: Dose normalized AUC in rat at 2.1 mg/kg, iv and 9.2 mg/kg, po; assay type: ADME, organism-based; settings: in vivo
[20] = Volume of distribution at steady state in rat at 2.1 mg/kg, iv and 9.2 mg/kg, po; assay type: ADME, organism-based; settings: in vivo, read-out: Vdss
[21] = Cmax in rat at 2.1 mg/kg, iv and 9.2 mg/kg, po; assay type: ADME, organism-based; settings: in vivo
[22] = Cmax in rat at 1.7 mg/kg, iv and 10.5 mg/kg, po; assay type: ADME, organism-based; settings: in vivo
[23] = tested on: Rattus norvegicus; test: Dose normalized AUC in rat at 1.7 mg/kg, iv and 10.5 mg/kg, po; assay type: ADME, organism-based; settings: in vivo
[24] = Bioavailability in rat at 1.7 mg/kg, iv and 10.5 mg/kg, po; assay type: ADME, organism-based; settings: in vivo
[25] = Volume of distribution at steady state in rat at 1.7 mg/kg, iv and 10.5 mg/kg, po; assay type: ADME, organism-based; settings: in vivo, read-out: Vdss
[26] = Clearance in rat at 1.7 mg/kg, iv; assay type: ADME, organism-based; set-up: dose 1.7 mg/kg, route intravenous; settings: in vivo
[27] = molecular target: Insulin receptor (Homo sapiens, UniProt P06213); test: Inhibition of human IR
[28] = molecular target: ALK tyrosine kinase receptor (Homo sapiens, UniProt Q9UM73); test: Inhibition of ALK
[29] = molecular target: Mitogen-activated protein kinase 8 (Homo sapiens, UniProt P45983); test: Inhibition of JNK1
Chain of Mitogen-activated protein kinase 8 (P45983 whole entry): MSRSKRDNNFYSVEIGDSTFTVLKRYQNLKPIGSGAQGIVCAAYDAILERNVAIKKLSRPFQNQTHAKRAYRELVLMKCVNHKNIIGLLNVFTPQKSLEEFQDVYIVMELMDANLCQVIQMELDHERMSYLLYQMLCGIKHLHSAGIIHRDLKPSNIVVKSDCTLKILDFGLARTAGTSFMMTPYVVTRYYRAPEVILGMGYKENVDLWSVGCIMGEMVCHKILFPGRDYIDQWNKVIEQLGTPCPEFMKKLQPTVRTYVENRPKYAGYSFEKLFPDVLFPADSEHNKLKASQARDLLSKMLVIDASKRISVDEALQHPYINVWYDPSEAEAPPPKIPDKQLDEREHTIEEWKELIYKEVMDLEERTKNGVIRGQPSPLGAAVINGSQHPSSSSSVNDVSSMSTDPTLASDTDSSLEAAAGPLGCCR

T1 sequence (P08069 31-736 limits assumed): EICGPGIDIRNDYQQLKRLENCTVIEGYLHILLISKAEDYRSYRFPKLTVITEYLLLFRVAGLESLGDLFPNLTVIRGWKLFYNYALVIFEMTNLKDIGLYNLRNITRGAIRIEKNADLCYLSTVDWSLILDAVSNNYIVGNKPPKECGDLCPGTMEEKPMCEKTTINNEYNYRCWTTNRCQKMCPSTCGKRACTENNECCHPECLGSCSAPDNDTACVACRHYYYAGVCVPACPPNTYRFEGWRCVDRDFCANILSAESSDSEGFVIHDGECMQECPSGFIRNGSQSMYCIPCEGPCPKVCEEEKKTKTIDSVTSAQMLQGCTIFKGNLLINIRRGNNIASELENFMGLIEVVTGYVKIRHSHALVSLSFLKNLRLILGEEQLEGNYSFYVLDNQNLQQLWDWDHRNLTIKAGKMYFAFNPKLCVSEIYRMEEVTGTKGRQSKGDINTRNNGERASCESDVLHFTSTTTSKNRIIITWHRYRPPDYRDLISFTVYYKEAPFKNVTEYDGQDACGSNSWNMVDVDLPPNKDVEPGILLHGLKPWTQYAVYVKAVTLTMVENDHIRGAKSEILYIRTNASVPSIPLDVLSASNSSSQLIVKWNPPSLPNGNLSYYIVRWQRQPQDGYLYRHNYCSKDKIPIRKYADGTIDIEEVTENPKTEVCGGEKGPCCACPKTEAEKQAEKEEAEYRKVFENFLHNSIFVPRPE
T1 sequence (P08069 741-1367 limits assumed): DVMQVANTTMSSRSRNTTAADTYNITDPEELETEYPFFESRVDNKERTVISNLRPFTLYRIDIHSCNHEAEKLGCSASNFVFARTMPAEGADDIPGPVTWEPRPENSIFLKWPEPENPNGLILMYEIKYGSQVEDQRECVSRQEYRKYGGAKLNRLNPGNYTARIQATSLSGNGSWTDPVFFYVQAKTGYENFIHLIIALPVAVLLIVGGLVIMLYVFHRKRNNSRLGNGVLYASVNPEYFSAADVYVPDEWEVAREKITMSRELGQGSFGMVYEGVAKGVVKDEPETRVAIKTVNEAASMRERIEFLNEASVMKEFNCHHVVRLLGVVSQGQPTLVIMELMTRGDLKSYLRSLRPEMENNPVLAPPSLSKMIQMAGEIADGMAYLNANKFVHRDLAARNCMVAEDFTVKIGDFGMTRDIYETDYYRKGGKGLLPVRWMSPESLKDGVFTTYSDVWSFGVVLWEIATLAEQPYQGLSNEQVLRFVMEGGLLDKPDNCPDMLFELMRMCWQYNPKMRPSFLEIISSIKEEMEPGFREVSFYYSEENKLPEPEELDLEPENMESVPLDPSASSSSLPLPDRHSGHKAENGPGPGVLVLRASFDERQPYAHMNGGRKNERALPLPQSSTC
Chain of Aurora kinase B (Q96GD4 whole entry): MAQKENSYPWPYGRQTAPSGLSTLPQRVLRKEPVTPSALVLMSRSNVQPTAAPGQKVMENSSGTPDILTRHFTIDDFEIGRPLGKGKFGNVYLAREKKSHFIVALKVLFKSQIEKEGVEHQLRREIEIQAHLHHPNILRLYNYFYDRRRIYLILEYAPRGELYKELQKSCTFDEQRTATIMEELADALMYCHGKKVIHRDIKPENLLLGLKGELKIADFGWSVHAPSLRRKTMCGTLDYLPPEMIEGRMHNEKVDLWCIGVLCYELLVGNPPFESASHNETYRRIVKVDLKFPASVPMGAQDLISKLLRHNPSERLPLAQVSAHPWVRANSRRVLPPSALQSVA
Chain of Insulin receptor (P06213 28-758 limits assumed): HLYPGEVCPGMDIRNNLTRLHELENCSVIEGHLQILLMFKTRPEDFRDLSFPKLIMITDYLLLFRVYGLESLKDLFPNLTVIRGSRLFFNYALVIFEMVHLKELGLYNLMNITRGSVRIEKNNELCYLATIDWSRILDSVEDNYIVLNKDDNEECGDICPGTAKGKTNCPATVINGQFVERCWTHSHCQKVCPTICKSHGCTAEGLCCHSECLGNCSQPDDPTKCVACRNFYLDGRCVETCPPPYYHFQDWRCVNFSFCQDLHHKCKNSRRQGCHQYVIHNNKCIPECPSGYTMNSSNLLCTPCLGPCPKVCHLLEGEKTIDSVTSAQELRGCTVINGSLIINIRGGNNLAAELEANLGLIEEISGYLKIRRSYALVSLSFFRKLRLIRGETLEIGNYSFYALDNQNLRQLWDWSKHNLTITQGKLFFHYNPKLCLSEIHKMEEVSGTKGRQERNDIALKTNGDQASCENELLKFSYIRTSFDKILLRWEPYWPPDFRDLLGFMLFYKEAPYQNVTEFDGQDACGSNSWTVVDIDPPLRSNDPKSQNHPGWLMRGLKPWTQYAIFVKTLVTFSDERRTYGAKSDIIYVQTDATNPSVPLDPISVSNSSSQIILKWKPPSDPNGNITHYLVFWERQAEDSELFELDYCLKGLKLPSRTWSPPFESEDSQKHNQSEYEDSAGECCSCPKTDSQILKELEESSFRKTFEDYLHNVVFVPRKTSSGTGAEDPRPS
Chain of Insulin receptor (P06213 763-1382 limits assumed): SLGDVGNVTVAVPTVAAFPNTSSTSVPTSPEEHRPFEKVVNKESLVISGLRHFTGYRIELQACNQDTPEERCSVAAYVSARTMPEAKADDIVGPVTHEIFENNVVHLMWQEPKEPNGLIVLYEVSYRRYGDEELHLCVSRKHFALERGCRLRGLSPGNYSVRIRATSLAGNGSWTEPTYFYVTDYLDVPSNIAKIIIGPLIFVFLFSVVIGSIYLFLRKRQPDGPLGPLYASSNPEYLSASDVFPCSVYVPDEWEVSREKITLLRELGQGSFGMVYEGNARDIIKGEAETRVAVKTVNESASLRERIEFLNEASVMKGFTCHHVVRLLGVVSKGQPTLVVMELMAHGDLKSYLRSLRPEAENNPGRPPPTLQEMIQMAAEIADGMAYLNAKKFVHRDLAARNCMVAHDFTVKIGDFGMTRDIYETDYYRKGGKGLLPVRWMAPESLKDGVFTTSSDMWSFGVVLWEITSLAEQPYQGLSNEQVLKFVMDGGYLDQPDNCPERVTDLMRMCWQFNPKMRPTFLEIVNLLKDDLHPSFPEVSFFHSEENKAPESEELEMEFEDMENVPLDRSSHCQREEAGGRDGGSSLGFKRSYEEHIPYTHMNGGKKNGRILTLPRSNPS
Chain of ALK tyrosine kinase receptor (Q9UM73 whole entry): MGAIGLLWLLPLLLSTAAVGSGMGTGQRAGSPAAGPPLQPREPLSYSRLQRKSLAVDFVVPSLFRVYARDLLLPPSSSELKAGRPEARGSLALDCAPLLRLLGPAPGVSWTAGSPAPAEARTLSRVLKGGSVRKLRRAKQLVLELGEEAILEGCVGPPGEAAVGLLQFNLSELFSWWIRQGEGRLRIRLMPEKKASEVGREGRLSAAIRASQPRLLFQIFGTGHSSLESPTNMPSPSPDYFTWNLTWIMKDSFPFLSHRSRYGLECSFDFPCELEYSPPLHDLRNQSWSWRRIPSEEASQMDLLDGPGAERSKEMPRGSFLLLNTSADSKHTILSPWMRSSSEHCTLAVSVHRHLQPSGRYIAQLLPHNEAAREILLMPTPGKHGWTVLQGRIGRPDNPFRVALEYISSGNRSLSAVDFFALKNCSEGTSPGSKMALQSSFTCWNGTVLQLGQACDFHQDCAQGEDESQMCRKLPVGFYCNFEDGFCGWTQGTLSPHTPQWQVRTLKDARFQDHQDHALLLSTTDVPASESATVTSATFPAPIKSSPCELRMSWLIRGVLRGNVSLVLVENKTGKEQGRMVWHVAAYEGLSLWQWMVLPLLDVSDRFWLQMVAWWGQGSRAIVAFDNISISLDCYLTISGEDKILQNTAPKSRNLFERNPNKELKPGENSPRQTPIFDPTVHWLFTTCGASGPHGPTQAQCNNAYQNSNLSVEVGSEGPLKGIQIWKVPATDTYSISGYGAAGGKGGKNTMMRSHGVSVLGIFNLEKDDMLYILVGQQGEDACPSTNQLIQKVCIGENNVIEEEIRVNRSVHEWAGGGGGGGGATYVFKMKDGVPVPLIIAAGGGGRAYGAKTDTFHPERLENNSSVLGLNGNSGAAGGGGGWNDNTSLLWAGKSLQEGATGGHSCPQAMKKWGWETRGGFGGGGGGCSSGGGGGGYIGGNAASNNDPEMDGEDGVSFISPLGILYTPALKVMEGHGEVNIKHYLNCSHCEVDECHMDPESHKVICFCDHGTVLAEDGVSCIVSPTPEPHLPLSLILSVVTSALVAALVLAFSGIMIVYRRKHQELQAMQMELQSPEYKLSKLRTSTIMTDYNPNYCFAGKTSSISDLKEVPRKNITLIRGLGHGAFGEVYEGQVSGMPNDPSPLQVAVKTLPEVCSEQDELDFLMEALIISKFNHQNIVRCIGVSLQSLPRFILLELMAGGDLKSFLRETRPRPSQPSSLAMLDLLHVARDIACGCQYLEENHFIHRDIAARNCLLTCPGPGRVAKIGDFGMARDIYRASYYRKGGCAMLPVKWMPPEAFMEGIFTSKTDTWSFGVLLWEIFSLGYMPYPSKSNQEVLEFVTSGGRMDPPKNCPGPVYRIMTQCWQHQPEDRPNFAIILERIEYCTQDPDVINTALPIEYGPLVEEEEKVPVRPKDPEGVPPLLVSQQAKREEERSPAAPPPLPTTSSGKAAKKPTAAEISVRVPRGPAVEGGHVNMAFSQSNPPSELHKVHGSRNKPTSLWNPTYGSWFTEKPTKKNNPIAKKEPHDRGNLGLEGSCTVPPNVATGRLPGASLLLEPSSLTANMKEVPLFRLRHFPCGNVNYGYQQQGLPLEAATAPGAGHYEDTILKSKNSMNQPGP

| SMILES | IC50 [1] [nM] | IC50 [3] [nM] | further results |
| --- | --- | --- | --- |
| COc1cc(N2CCN(C(C)C)CC2)ccc1Nc1nc(Nc2cc(F)ccc2C(N)=O)c2cc[nH]c2n1 | 130 | 0.8 |  |
| COc1cc(N2CCN(C(C)C)CC2)ccc1Nc1nc(Nc2ccc(F)c(F)c2C(N)=O)c2cc[nH]c2n1 | 213 |  |  |
| COc1cc(N2CCN(C(C)C)CC2)ccc1Nc1nc(Nc2cc(F)cc(F)c2C(N)=O)c2cc[nH]c2n1 | 90 |  | Vdss [4]: 11 L/kg; bioavailability [5]: 37%; AUC [6]: 117 ng·h/mL/mg/kg; clearance [7]: 46 mL/min/kg; Cmax [8]: 200 ng/mL |
| COc1cc(C)c(N2CCN(C(C)C)CC2)cc1Nc1nc(Nc2cccc(F)c2C(N)=O)c2cc[nH]c2n1 | 270 | 20 |  |
| COc1c(Nc2nc(Nc3cccc(F)c3C(N)=O)c3cc[nH]c3n2)ccc(N2CCN(C(C)C)CC2)c1F | 574 | 4 |  |
| CCCN1CCC=C(c2ccc(Nc3nc(Nc4cc(F)ccc4C(N)=O)c4cc[nH]c4n3)c(OC(C)C)c2)C1 | 2240 | 3.2 |  |
| COc1cc(N2CCN(C(C)C)CC2)ccc1Nc1nc(Nc2cccc(F)c2C(N)=O)c2ccn(C)c2n1 |  | 10000 |  |
| COc1cc(N2CCN(C(C)C)CC2)c(OC)cc1Nc1nc(Nc2cccc(F)c2C(N)=O)c2cc[nH]c2n1 | 90 | 3.2 |  |
| COc1cc(N2CCN(C(C)C)CC2)c(F)cc1Nc1nc(Nc2cccc(F)c2C(N)=O)c2cc[nH]c2n1 | 190 | 2 |  |
| CCCN1CCN(c2ccc(Nc3nc(Nc4cc(F)ccc4C(N)=O)c4cc[nH]c4n3)c(OC)c2)CC1 | 122 | 1.6 |  |
| CCCN1CCC=C(c2ccc(Nc3nc(Nc4ccccc4C(N)=O)c4cc[nH]c4n3)cc2)C1 |  | 1.6 | IC50 [2]: 5 nM |
| COc1cc(N2CCOCC2)ccc1Nc1nc(Nc2cc(F)ccc2C(N)=O)c2cc[nH]c2n1 | 68 | 1.6 |  |
| COc1cc(N2CCN(C(C)C)CC2)ccc1Nc1nc(Nc2cccc(F)c2C(N)=O)c2cc[nH]c2n1 | 109 |  | AUC [19]: 156 ng·h/mL/mg/kg; Vd [20]: 18.5 L/kg; Cmax [21]: 184 ng/mL |
| COCCNC(=O)c1cc(F)ccc1Nc1nc(Nc2ccc(N3CCN(C(C)C)CC3)cc2OC)nc2[nH]ccc12 | 760 | 25 |  |
| COc1cc(N2CCN(C(C)C)CC2)c(Cl)cc1Nc1nc(Nc2cccc(F)c2C(N)=O)c2cc[nH]c2n1 | 65 | 1.6 |  |
| CCCN1CCC=C(c2ccc(Nc3nc(Nc4ccccc4C(N)=O)c4cc[nH]c4n3)c(OC)c2)C1 | 104 | 0.6 | IC50 [2]: > 10000 nM |
| CNC(=O)c1cc(F)ccc1Nc1nc(Nc2ccc(N3CCN(C(C)C)CC3)cc2OC)nc2[nH]ccc12 | 135 | 3.2 |  |
| COc1c(Nc2nc(Nc3cccc(F)c3C(N)=O)c3cc[nH]c3n2)ccc(N2CCN(C(C)C)CC2)c1C | 3700 | 8 |  |
| COc1ccc(N2CCN(C(C)C)CC2)cc1Nc1nc(Nc2cccc(F)c2C(N)=O)c2cc[nH]c2n1 | 160 | 4 |  |
| CCCN1CCCC(c2ccc(Nc3nc(Nc4cc(F)ccc4C(N)=O)c4cc[nH]c4n3)c(OC)c2)C1 (racemic) [GSK-1173862A] | 60 | 0.4 |  |
| CCCN1CCC=C(c2ccc(Nc3nc(Nc4ccccc4C(N)=O)c4cc[nH]c4n3)c(C)c2)C1 [GSK-994854A] |  | 5 | IC50 [27]: 6.3 nM; IC50 [28]: 1 nM; IC50 [29]: 12 nM |
| CCCN1CCC(c2ccc(Nc3nc(Nc4cc(F)ccc4C(N)=O)c4cc[nH]c4n3)c(OC)c2)CC1 [GSK-1326255A] | 47 | 0.3 |  |

The remaining molecules from weak to strong by IC50 [3], led by results:

| IC50 [1] [nM] | IC50 [3] [nM] | SMILES | further results |
| --- | --- | --- | --- |
|  | 50 | COc1cc(N2CCN(C(C)C)CC2)ccc1N(C)c1nc(Nc2cccc(F)c2C(N)=O)c2cc[nH]c2n1 |  |
| > 10000 | 20 | CCCN1CCC=C(c2ccc(Nc3nc(Nc4ccccc4C(N)=O)c4cc[nH]c4n3)c(C(F)(F)F)c2)C1 |  |
| 5600 | 16 | COc1cc(N2CCN(C(C)C)CC2)ccc1Nc1nc(Nc2ccc(F)cc2C(=O)NC[C@@H](O)CO)c2cc[nH]c2n1 [GSK-1392956A] |  |
| 613 | 6.3 | COc1cc(N2CCN(C(C)C)CC2)ccc1Nc1nc(Nc2ccc(F)cc2C(=O)NO)c2cc[nH]c2n1 |  |
| 370 | 5 | CNC(=O)c1c(F)cccc1Nc1nc(Nc2ccc(N3CCN(C(C)C)CC3)cc2OC)nc2[nH]ccc12 | bioavailability [14]: 83%; Vdss [15]: 22.3 L/kg; AUC [16]: 277 ng·h/mL/mg/kg; clearance [17]: 32 mL/min/kg; Cmax [18]: 418 ng/mL |
| 650 | 5 | COc1cc(N2CCN(C(C)C)CC2)ccc1Nc1nc(Nc2ccc(F)cc2C(=O)NCCO)c2cc[nH]c2n1 |  |
| 38 | 2 | COc1cc(N2CCN(C(C)C)CC2)c(C)cc1Nc1nc(Nc2cccc(F)c2C(N)=O)c2cc[nH]c2n1 |  |
| 317 | 1.6 | CCCN1CCC=C(c2ccc(Nc3nc(Nc4ccccc4C(N)=O)c4cc[nH]c4n3)c(F)c2)C1 | IC50 [2]: 1600 nM |
| 71 | 1 | COc1cc(N2CCN(C(C)C)CC2)ccc1Nc1nc(Nc2ccccc2C(N)=O)c2cc[nH]c2n1 | Cmax [22]: 69 ng/mL; AUC [23]: 35 ng·h/mL/mg/kg; bioavailability [24]: 37%; Vd [25]: 19.5 L/kg; clearance [26]: 142 mL/min/kg |
| 82 | 0.8 | CCCN1CCC=C(c2ccc(Nc3nc(Nc4cc(F)ccc4C(N)=O)c4cc[nH]c4n3)c(OC)c2)C1 |  |
| 60 | 0.8 | COc1cc(N2CCN(C(C)C)CC2)ccc1Nc1nc(Nc2ccc(F)cc2C(N)=O)c2cc[nH]c2n1 [GSK-1220512A] |  |
| 53 | 0.5 | COc1cc(N2CCN(C(C)C)CC2)ccc1Nc1nc(Nc2cc(F)c(F)cc2C(N)=O)c2cc[nH]c2n1 | bioavailability [9]: 45%; Cmax [10]: 152 ng/mL; AUC [11]: 114 ng·h/mL/mg/kg; clearance [12]: 64 mL/min/kg; Vdss [13]: 17 L/kg |
